From patent publication US20230331779A1, “BISPECIFIC FUSION POLYPEPTIDE COMPOUND” (SHAANXI MICOT TECHNOLOGY CO., LTD., priority 2020, published 2023)
Where two headings read alike, the source gives them in different places.

Assays:
[1] = Cortical bone porosity in adenine-gavage SHPT rats (Micro CT of femur); type: in vivo, rat; conditions: 3.0 mg/kg s.c. three times a week for six weeks, Mean ± SEM
Experimental: According to the Yokozawz method, SD rats were given adenine gavage to establish an animal model of chronic renal failure, and fed with a high-phosphorus diet to induce a model of secondary hyperparathyroidism. Rats were fed until the end of the experiment, and model rats were screened according to the content of PTH in plasma. According to the PTH content and body weight, the model rats were randomly divided into 5 groups: a normal saline group, an etelcalcetide (3.0 mg/kg, dissolved in normal saline) group, 3 groups of Example 1 (1.0 mg/kg, 2.0 mg/kg and 4.0 mg/kg, dissolved in normal saline), and subcutaneously administered three times a week for six consecutive weeks at 1.0 ml/kg per rat. Six weeks later, the left femur of the rat was taken, the muscle and connective tissue were removed, and the femur was placed in a 4% formalin solution. Micro CT scanning was performed 24 hours later, and data was subjected analysis.

[2] = Plasma PTH in 5/6 nephrectomy rats (secondary hyperparathyroidism model); type: in vivo, rat; conditions: 3.0 mg/kg s.c. three times a week
Experimental: Male SD rats were divided into a sham operation group and a 5/6 nephrectomy group (5/6Nx). Rats in the nephrectomy group underwent 5/6 nephrectomy, and were fed with high-phosphorus diet for two weeks after the operation to accelerate the induction of the secondary hyperparathyroidism rat model. After being fed with high-phosphorus diet for 3 weeks, the model rats were randomly divided into 6 groups, a 5/6Nx group (Vehicle), a positive control drug etelcalcetide group (3.0 mg/kg) and 4 groups of the compound of Example 1 (0.5, 1.0, 2.0, 4.0 mg/kg). The rats were administered subcutaneously three times a week for 6 consecutive weeks. Before the first administration, after the first administration, and 4 hours after administration in the 2nd, 4th, and 6th week, blood samples were collected from rats, and the plasma and serum were separated for the detection of the content of PTH in the plasma at each time point.

[3] = biological target: T1, calcium-sensing receptor (CASR) (Homo sapiens, UniProt P41180); test: CaSR activation, HTRF IP-1 competition method in HEK293-CaSR cells; type: cell-based
T1 construct: expressed in transfected cells; host or cells: HEK293-CaSR cells
T1 sequence (P41180 20-1078): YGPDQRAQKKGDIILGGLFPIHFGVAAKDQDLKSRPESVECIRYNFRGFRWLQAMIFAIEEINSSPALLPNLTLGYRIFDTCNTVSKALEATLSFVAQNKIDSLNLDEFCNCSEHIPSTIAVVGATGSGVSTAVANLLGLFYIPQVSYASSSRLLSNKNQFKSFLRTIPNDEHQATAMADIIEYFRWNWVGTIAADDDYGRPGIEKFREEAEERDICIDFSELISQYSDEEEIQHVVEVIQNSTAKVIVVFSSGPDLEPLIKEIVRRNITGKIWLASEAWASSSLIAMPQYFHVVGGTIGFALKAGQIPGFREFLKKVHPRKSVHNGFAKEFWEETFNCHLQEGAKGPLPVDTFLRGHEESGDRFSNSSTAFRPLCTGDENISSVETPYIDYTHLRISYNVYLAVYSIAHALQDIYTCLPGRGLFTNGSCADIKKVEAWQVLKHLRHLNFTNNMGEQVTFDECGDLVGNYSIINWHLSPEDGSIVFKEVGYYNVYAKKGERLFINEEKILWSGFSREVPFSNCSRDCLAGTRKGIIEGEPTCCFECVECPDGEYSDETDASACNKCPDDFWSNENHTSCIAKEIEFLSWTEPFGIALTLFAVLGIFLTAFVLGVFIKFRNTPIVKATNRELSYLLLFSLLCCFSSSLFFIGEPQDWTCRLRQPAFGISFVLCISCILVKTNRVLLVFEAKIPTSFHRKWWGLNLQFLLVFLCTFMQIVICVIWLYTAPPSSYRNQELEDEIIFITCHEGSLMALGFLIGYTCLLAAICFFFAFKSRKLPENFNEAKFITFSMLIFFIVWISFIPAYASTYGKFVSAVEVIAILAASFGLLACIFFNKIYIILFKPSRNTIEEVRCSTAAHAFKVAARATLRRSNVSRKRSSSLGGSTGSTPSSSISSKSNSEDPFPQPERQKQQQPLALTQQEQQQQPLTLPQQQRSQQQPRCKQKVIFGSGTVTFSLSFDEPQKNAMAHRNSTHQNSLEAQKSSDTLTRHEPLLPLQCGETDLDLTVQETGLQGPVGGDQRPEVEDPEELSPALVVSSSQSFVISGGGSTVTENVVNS
Description: In the CaSR activation experiment, the Homogeneous Time-Resolved Fluorescence (HTRF) IP-1 (myolnositol 1 phosphate) competition method was used to detect the effect of the polypeptide of Example 1 on CaSR.

[4] = Effect of single intravenous injection on blood phosphorus in normal rats; type: in vivo, rat; conditions: for blood phosphorus level after a single intravenous bolus injection: normal SD rats
Experimental: (§1) Test method: SPF grade SD rats, weighing 250-280 g, were randomly divided into 7 groups, 6 administration groups and 1 blank control group (Vehicle=normal saline). The test samples were prepared into a solution with normal saline for administration. The test compound was administered by a single tail vein injection (1 mL/kg) at a dose of 0.5 mg/kg, 1.5 mg/kg and 4.5 mg/kg, respectively. Serum calcium (mmol/L) and phosphorus levels (mmol/L) were measured at 0 hour and at 4, 8 and 16 hours after administration.
(§2) Data processing: The concentrations of PTH, calcium and phosphorus in each group and at each time point were statistically analyzed using the graphpad 6.0 software.

[5] = Effect of single intravenous injection on blood calcium in normal rats; type: in vivo, rat; conditions: for blood calcium level after a single intravenous bolus injection: normal SD rats
Experimental: as §1, §2

fibroblast NIH/3T3 cells = test: CyQUANT in vitro proliferation of fibroblast cells; type: cell-based; conditions: FIG. 1; comparable effective dose for Example 1 and OGP
Experimental: (§3) The CyQUANT cell proliferation detection kit was used to determine the in vitro proliferation effect of the polypeptide of Example 1 on osteoblast MC3T3-E1 Subclone 4 and fibroblast NIH/3T3 cells. Osteogenic growth peptide (OGP) was used as a positive control in the experiment. The polypeptide of Example 1 and OGP were prepared to the following concentrations: 10^−8 mol/L, 10^−9 mol/L, 10^−10 mol/L, 10^−11 mol/L, 10^−12 mol/L, 10^−13 mol/L, 10^−14 mol/L, 10^−15 mol/L and 10^−16 mol/L. 100 μL of medium was discarded from each well of the cell plate to be tested, and 100 μL of 2×CyQuant detection reagent was added to each well. The plate was then placed in a 37° C., 5% CO2 incubator for 60 min. Fluorescence values were read in bottom-reading mode with excitation and emission wavelengths of 480/535 nm.
(§4) % relative to Control=(reading value of compound well−reading value of blank control well)/(reading value of base control well−reading value of blank control well)×100

[6] = tested on: osteoblast MC3T3-E1 Subclone 4 cells; test: CyQUANT in vitro proliferation of osteoblast cells; type: cell-based; conditions: FIG. 1; Example 1 effect more pronounced than that of OGP
Experimental: as §3, §4

[7] = 0.5 mg/kg i.v., 0 h (before administration)
[8] = 1.5 mg/kg i.v., 0 h (before administration)
[9] = 4.5 mg/kg i.v., 0 h (before administration)

## CC(=O)N[C@H](CSSC[C@H](N)C(=O)O)C(=O)N[C@H](C)C(=O)N[C@H](CCCNC(=N)N)C(=O)N[C@H](CCCNC(=N)N)C(=O)N[C@H](CCCNC(=N)N)C(=O)N[C@H](C)C(=O)N[C@H](CCCNC(=N)N)C(N)=O [Etelcalcetide, etelcalcetide]
[1]
  Cortical bone porosity: 4.13 ± 2.27%
[2]; 2 weeks
  PTH change in plasma 4 h after administration: −95.57 ± 0.28%
[2]; 4 weeks
  PTH change in plasma 4 h after administration: −93.81 ± 0.59%
[2]; 6 weeks
  PTH change in plasma 4 h after administration: −92.63 ± 0.77%
[2]; first administration
  PTH change in plasma 4 h after administration: −92.03 ± 0.67%

## CC(=O)N[C@H](CSSC[C@H](NC(=O)CNC(=O)CNC(=O)[C@@H](Cc1ccccc1)NC(=O)C(C)(C)NC(=O)[C@H](N)Cc1ccc(O)cc1)C(=O)O)C(=O)N[C@H](C)C(=O)N[C@H](CCCNC(=N)N)C(=O)N[C@H](CCCNC(=N)N)C(=O)N[C@H](CCCNC(=N)N)C(=O)N[C@H](C)C(=O)N[C@H](CCCNC(=N)N)C(N)=O [Example 1]
[3]; Ca2+ concentration of 1.2 mM, read-out: EC50, agonistic activity on HEK293-CaSR cells
  EC50: 84.7 µM
[3]; in the absence of Ca2+, read-out: EC50, agonist activity on HEK293-CaSR cells
  EC50: 980 µM

## Example 2: Ac-D-Cys-D-Ala-D-Arg-D-Arg-D-Arg-D-Ala-D-Arg-NH2 linked by disulfide bond to H-D-Tyr-D-Arg-D-Phe-Gly-Gly-L-Cys-OH (CARRRAR; D-amino acids, Ac, NH2, disulfide-linked second peptide; MOD_RES (1)..(7) Cys, Ala and Arg are D-amino acids; MOD_RES (1)..(1) Cys is acetylated; MOD_RES (7)..(7) Arg is amidated; BINDING (1)..(1) Cys is linked ot Cys in SEQ ID NO 6 via disulfide bond)
[4]; high-dose group (4.5 mg/kg)
  time at which serum phosphorus level reached the highest: 8 h
[4]; low-dose group (0.5 mg/kg and 1.5 mg/kg)
  time at which serum phosphorus level reached the highest: 4 h
[4]; [7]
  blood phosphorus level after a single intravenous bolus injection: 2.70 ± 0.06 mmol/L
[4]; 0.5 mg/kg i.v., 4 h
  blood phosphorus level after a single intravenous bolus injection: 2.78 ± 0.14 mmol/L
[4]; 0.5 mg/kg i.v., 8 h
  blood phosphorus level after a single intravenous bolus injection: 2.67 ± 0.06 mmol/L
[4]; 0.5 mg/kg i.v., 16 h
  blood phosphorus level after a single intravenous bolus injection: 2.49 ± 0.08 mmol/L
[4]; [8]
  blood phosphorus level after a single intravenous bolus injection: 2.65 ± 0.08 mmol/L
[4]; 1.5 mg/kg i.v., 4 h
  blood phosphorus level after a single intravenous bolus injection: 3.04 ± 0.08 mmol/L
[4]; 1.5 mg/kg i.v., 8 h
  blood phosphorus level after a single intravenous bolus injection: 3.05 ± 0.08 mmol/L
[4]; 1.5 mg/kg i.v., 16 h
  blood phosphorus level after a single intravenous bolus injection: 2.47 ± 0.06 mmol/L
[4]; [9]
  blood phosphorus level after a single intravenous bolus injection: 2.63 ± 0.02 mmol/L
[4]; 4.5 mg/kg i.v., 4 h
  blood phosphorus level after a single intravenous bolus injection: 3.31 ± 0.08 mmol/L
[4]; 4.5 mg/kg i.v., 8 h
  blood phosphorus level after a single intravenous bolus injection: 3.67 ± 0.1 mmol/L
[4]; 4.5 mg/kg i.v., 16 h
  blood phosphorus level after a single intravenous bolus injection: 2.49 ± 0.06 mmol/L
[4]; normal rats, single tail vein bolus injection
  effect on blood phosphorus concentration (in words): increasing the blood phosphorus concentration
[5]; [7]
  blood calcium level after a single intravenous bolus injection: 2.42 ± 0.02 mmol/L
[5]; 0.5 mg/kg i.v., 4 h
  blood calcium level after a single intravenous bolus injection: 2.05 ± 0.04 mmol/L
[5]; 0.5 mg/kg i.v., 8 h
  blood calcium level after a single intravenous bolus injection: 2.20 ± 0.02 mmol/L
[5]; 0.5 mg/kg i.v., 16 h
  blood calcium level after a single intravenous bolus injection: 2.27 ± 0.01 mmol/L
[5]; [8]
  blood calcium level after a single intravenous bolus injection: 2.41 ± 0.06 mmol/L
[5]; 1.5 mg/kg i.v., 4 h
  blood calcium level after a single intravenous bolus injection: 2.02 ± 0.06 mmol/L
[5]; 1.5 mg/kg i.v., 8 h
  blood calcium level after a single intravenous bolus injection: 1.84 ± 0.04 mmol/L
[5]; 1.5 mg/kg i.v., 16 h
  blood calcium level after a single intravenous bolus injection: 2.10 ± 0.03 mmol/L
[5]; [9]
  blood calcium level after a single intravenous bolus injection: 2.45 ± 0.02 mmol/L
[5]; 4.5 mg/kg i.v., 4 h
  blood calcium level after a single intravenous bolus injection: 1.79 ± 0.03 mmol/L
[5]; 4.5 mg/kg i.v., 8 h
  blood calcium level after a single intravenous bolus injection: 1.53 ± 0.03 mmol/L
[5]; 4.5 mg/kg i.v., 16 h
  blood calcium level after a single intravenous bolus injection: 1.64 ± 0.17 mmol/L
[5]; normal rats, single tail vein bolus injection, each administration group, P≤0.01
  blood calcium levels compared with the concentration before administration (in words): decreased significantly

## Osteogenic growth peptide [OGP]
Fibroblast NIH/3T3 cells
  concentration that significantly stimulates proliferation of fibroblast NIH3T3 cells (effective dose): 10^−8 M
[6]
  concentration that significantly stimulated proliferation of osteoblast MC3T3-E1 Subclone 4 cells: 10^−8 to 10^−16 M
